According to patent US11576923B2, “Composition for improving skin elasticity comprising novel ginsenoside” (AMOREPACIFIC CORPORATION, priority 2019, dated 2023):

Key:
Type in all cases: cell-based
[1] = test system: matrix metalloproteinase-1 (MMP-1) expression in normal human dermal fibroblasts (NHDFs); test: Collagen degradation-inhibiting effect (TNFα-induced MMP-1 mRNA by Q-PCR, secreted MMP-1 protein by ELISA)
Excerpt: For skin elasticity to be maintained, the synthesis of collagen should be promoted and its degradation should be inhibited. Because collagen is degraded by matrix metalloproteinase-1 (MMP-1), it was investigated whether the ginseng seed-derived ginsenosides inhibit the expression of the collagen-degrading enzyme. After pretreating normal human dermal fibroblasts (NHDFs; ATCC) with GS #10, which is a novel ginsenoside according to an exemplary embodiment of the present disclosure, and ginsenosides GS #01-GS #06 as comparative examples of the present disclosure, which were isolated from the ginseng seed extract, under a serum-free condition in the same manner as in Test Example 1 for 2 hours at a concentration of 10 μg/mL, respectively, the cells were treated for 24 hours with a substance capable of inducing inflammatory response (TNFα; 10 ng/mL), which can promote the expression of MMP-1. After preparing RNA and cDNA in the same manner as in Test Example 1, the expression of MMP-1 mRNA was investigated by Q-PCR (FIG. 13), and the amount of the secreted MMP-1 protein was analyzed using a human MMP-1 ELISA kit (Abcam) (FIG. 14). […] Through this, it was confirmed that Compound 10 (GS #10), which is a novel ginsenoside of the present disclosure, can effectively improve skin elasticity by alleviating or delaying the decline in skin elasticity and the formation of wrinkles. […]

[2] = test system: collagen biosynthesis in normal human dermal fibroblasts (NHDFs); test: Collagen biosynthesis-promoting effect (procollagen mRNA by Q-PCR, secreted collagen protein by ELISA)
Description: Normal human dermal fibroblasts (NHDFs; ATCC) were cultured in Dulbecco's modified Eagle's medium (Sigma) supplemented with 10% fetal bovine serum (FBS; Hyclone) and 1 (w/v) % penicillin/streptomycin (Sigma) at 37° C. in a 5% CO2 incubator. For collagen synthesis, after replacing the medium with serum-free Dulbecco's modified Eagle's medium, the cells were treated with GS #10, which is a novel ginsenoside according to an exemplary embodiment of the present disclosure, and ginsenosides GS #01-GS #06 as comparative examples of the present disclosure, which were isolated from the ginseng seed extract, for 24 hours at a concentration of 10 μg/mL, respectively. Fibroblast growth factor 1 (FGF1) was used as a positive control group for inducing collagen synthesis. After recovering the cells and extracting RNA using a TRIzol™ reagent (Thermo), cDNA was synthesized using a ReverdAid 1st strand cDNA synthesis kit (Thermo). Then, the change in the amount of procollagen mRNA was observed using a gene amplifier (CFX96 thermocycler, Bio-Rad) (FIG. 11), and the amount of the collagen protein secreted to the medium was measured using a collagen ELISA kit (Abcam) (FIG. 12) […]

SH-SY5Y cells = test: Cytotoxicity (CCK-8 cell viability); details: 0.1, 1, 5, 10, 20 and 50 μM, FIG. 19
Description: Cell growth in the presence of the novel ginsenoside GS #10 according to an exemplary embodiment of the present disclosure was evaluated using a cell counting kit (CCK-8) in order to exclude the possibility that the ginsenoside may affect the effect of improving skin elasticity or improving wrinkles through cytotoxic activity. The experimental method is as follows.
10 μL of a CCK-8 reagent was added to SH-SY5Y cells (Dojindo, Md., USA) in a 96-well plate and left at 37° C. for 2 hours. Then, absorbance was measured at 450 nm. Cell viability was represented as the percentage (%) of the absolute optical density of each sample relative to an untreated sample. The concentration of the novel ginsenoside GS #10 according to an exemplary embodiment of the present disclosure in the medium in which the cells were cultured was 0.1, 1, 5, 10, 20 and 50 μM, respectively.

SMILES: CC1(C)C(=O)CC[C@@]2(C)C1[C@@H](O[C@H]1OC(CO)[C@H](O)C(O)C1O[C@H]1OC(CO)[C@H](O)C(O)C1O)C[C@]1(C)C2C[C@@H](O)C2C([C@]3(C)CC[C@H](C(C)(C)O)O3)CC[C@]21C (stereo partly drawn) [Compound 10, (20S,24R)-6-O-β-D-glucopyranosyl(1→2)-β-D-glucopyranoside-dammar-3-one-20,24-epoxy-6a,12b,25-triol]
- effect of inhibiting MMP-1 expression as compared to Compounds 1-6 ([1]; NHDFs, 10 μg/mL pretreatment 2 hours, then TNFα 10 ng/mL 24 hours, FIG. 13 and FIG. 14): 2-3 times higher
- effect of inhibiting collagen degradation as compared to the three red ginseng marker ginsenosides ([1]; Test Example 3, same manner as Test Example 2, FIG. 17 and FIG. 18): remarkably excellent effect of inhibiting collagen degradation
- increase in the amount of collagen due to promoted collagen biosynthesis ([2]; NHDFs, 10 μg/mL, 24 hours, serum-free, vs control group (−), FIG. 11 and FIG. 12): about 2 times
- increase of collagen synthesis ([2]; Test Example 3, same manner as Test Example 1, FIG. 15 and FIG. 16): ≥ 2 times
- cytotoxicity (cell viability, CCK-8) (SH-SY5Y cells): did not exhibit cytotoxicity up to 50 μM
